Data on 64 compounds can be found in patent US8106197B2, “Aminoheteroaryl compounds as protein kinase inhibitors” (Pfizer Inc., priority 2003, dated 2012).

The assay has as its target T1, HGFR (Homo sapiens, UniProt P08581).
T1 construct: purchased Upstate 14-526
Description: HGFR continuous-coupled spectrophotometric assay. In kind it is biochemical.

T1 sequence (P08581 974-1390 limits assumed): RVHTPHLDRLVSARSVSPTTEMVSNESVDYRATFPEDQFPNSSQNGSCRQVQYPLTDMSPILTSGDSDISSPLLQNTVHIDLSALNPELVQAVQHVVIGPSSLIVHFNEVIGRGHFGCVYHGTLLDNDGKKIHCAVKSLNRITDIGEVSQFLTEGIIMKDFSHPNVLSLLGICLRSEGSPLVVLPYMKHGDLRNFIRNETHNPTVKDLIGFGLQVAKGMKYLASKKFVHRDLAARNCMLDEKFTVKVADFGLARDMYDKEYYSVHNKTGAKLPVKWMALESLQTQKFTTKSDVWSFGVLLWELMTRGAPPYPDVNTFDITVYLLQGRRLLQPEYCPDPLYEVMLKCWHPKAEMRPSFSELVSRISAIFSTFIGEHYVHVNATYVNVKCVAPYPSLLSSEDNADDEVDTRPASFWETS

Regarding `Nc1ncc(-c2ccc(C(=O)N3CCC(N4CCCC4)CC3)cc2)cc1OCc1ccc(OC(F)(F)F)cc1`, the “% inhibition” value was “% inhibition = 20”.
The entry for `Nc1ncc(-c2ccc(C(=O)N3CCC(N4CCCC4)CC3)cc2)cc1OCc1cc(F)cc(F)c1` is “% inhibition = 14”; for `Nc1ncc(-c2ccc(C(=O)N3CCC(N4CCCC4)CC3)cc2)cc1OCc1cccc(F)c1F` it is “% inhibition = 24”; for `COc1ccc(-c2nc(COc3cc(-c4ccc(C(=O)N5CCC(N6CCCC6)CC5)cc4)cnc3N)no2)cc1` it is “% inhibition = 10”.
The result for `Nc1ncc(-c2ccc(C(=O)N3CCC(N4CCCC4)CC3)cc2)cc1OCc1ncc(C(F)(F)F)cc1Cl` reads “% inhibition = 8”.
The result for `Nc1ncc(-c2ccc(C(=O)N3CCC(N4CCCC4)CC3)cc2)cc1OCc1csc2ccc(Cl)cc12` reads “% inhibition = 37”; that for `Nc1ncc(-c2ccc(C(=O)N3CCC(N4CCCC4)CC3)cc2)cc1OCc1ccc(Br)cc1F`, “% inhibition = 31”; that for `Nc1ncc(-c2ccc(C(=O)N3CCC(N4CCCC4)CC3)cc2)cc1OCc1cc(Br)cc(Br)c1`, “% inhibition = 45”.
Consider `CS(=O)(=O)c1ccc(COc2cc(-c3ccc(C(=O)N4CCC(N5CCCC5)CC4)cc3)cnc2N)cc1`, for which the “% inhibition” value is “% inhibition = 11”.
On to `N#Cc1ccccc1-c1ccc(COc2cc(-c3ccc(C(=O)N4CCC(N5CCCC5)CC4)cc3)cnc2N)cc1`, for which the “% inhibition” value is on record as “% inhibition = 77”.
The result for `Nc1ncc(-c2ccc(C(=O)N3CCC(N4CCCC4)CC3)cc2)cc1OCc1ccc(C(=O)NCCN2CCOCC2)cc1` reads “% inhibition = 11”; that for `CN(C)CCNC(=O)c1ccc(COc2cc(-c3ccc(C(=O)N4CCC(N5CCCC5)CC4)cc3)cnc2N)cc1`, “% inhibition = 9”; that for `Nc1ncc(-c2ccc(C(=O)N3CCC(N4CCCC4)CC3)cc2)cc1OCc1ccc(C(=O)N2CCN(Cc3ccccc3)CC2)cc1`, “% inhibition = 12”.
Regarding `Nc1ncc(-c2ccc(C(=O)N3CCC(N4CCCC4)CC3)cc2)cc1OCc1ccc(C(=O)NCc2ccccn2)cc1`, the “% inhibition” value is reported as “% inhibition = 7”.
In the case of `Nc1ncc(-c2ccc(C(=O)N3CCC(N4CCCC4)CC3)cc2)cc1OCc1cccc(C(=O)Nc2cccnc2)c1`, the “% inhibition” value is recorded as “% inhibition = 10”.
The result for `Nc1ncc(-c2ccc(C(=O)N3CCC(N4CCCC4)CC3)cc2)cc1OCc1cccc(C(=O)NCc2cccnc2)c1` reads “% inhibition = 14”.
The entry for `Nc1ncc(-c2ccc(C(=O)N3CCC(N4CCCC4)CC3)cc2)cc1OCc1cccc(C(=O)NCc2ccncc2)c1` is “% inhibition = 10”.
The result for `Nc1ncc(-c2ccc(C(=O)N3CCC(N4CCCC4)CC3)cc2)cc1OCc1cccc(C(=O)NCCc2ccccn2)c1` reads “% inhibition = 12”.
On to `Nc1ncc(-c2ccc(C(=O)N3CCC(N4CCCC4)CC3)cc2)cc1OCc1cccc(C(=O)NC2CCN(Cc3ccccc3)C2)c1` (stereo not shown), for which the “% inhibition” value is on record as “% inhibition = 13”.
Consider `Nc1ncc(-c2ccc(C(=O)N3CCC(N4CCCC4)CC3)cc2)cc1OCc1ccc(C(=O)NCCc2ccccn2)cc1`, for which the “% inhibition” value is given as “% inhibition = 11”.
The entry for `Nc1ncc(-c2ccc(C(=O)N3CCC(N4CCCC4)CC3)cc2)cc1OCc1ccc(C(=O)NCCN2CCCC2)cc1` is “% inhibition = 10”; for `Nc1ncc(-c2ccc(C(=O)N3CCC(N4CCCC4)CC3)cc2)cc1OCc1ccc(C(=O)NCCCN2CCCC2=O)cc1` it is “% inhibition = 11”.
The result for `Nc1ncc(-c2ccc(C(=O)N3CCC(N4CCCC4)CC3)cc2)cc1OCc1cccc(C(=O)NC2CCN(Cc3ccccc3)CC2)c1` reads “% inhibition = 13”.
For the compound `Nc1ncc(-c2ccc(C(=O)N3CCC(N4CCCC4)CC3)cc2)cc1OCc1ccc(C(=O)NC2CCN(Cc3ccccc3)CC2)cc1`, the “% inhibition” value is listed as “% inhibition = 11”.
The result for `CCN1CCCC1CNC(=O)c1cccc(COc2cc(-c3ccc(C(=O)N4CCC(N5CCCC5)CC4)cc3)cnc2N)c1` (stereo not shown) reads “% inhibition = 10”.
With `CCN1CCCC1CNC(=O)c1ccc(COc2cc(-c3ccc(C(=O)N4CCC(N5CCCC5)CC4)cc3)cnc2N)cc1` (stereo not shown), the “% inhibition” value is given as “% inhibition = 18”.
Regarding `CN(C)c1ccc(NC(=O)c2cccc(COc3cc(-c4ccc(C(=O)N5CCC(N6CCCC6)CC5)cc4)cnc3N)c2)cc1`, the “% inhibition” value was “% inhibition = 23”.
The result for `CCN(CC)c1ccc(NC(=O)c2ccc(COc3cc(-c4ccc(C(=O)N5CCC(N6CCCC6)CC5)cc4)cnc3N)cc2)cc1` reads “% inhibition = 47”; that for `Nc1ncc(-c2ccc(C(=O)N3CCC(N4CCCC4)CC3)cc2)cc1OCc1ccc(C(=O)NCc2cccnc2)cc1`, “% inhibition = 15”.
As to `Nc1ncc(-c2ccc(C(=O)N3CCC(N4CCCC4)CC3)cc2)cc1OCc1ccc(C(=O)NC2CCN(Cc3ccccc3)C2)cc1` (stereo not shown), the “% inhibition” value is recorded as “% inhibition = 24”.
The entry for `Nc1ncc(-c2ccc(C(=O)N3CCC(N4CCCC4)CC3)cc2)cc1OCc1cccc(C(=O)Nc2ccc(N3CCCCC3)cc2)c1` is “% inhibition = 32”.
The result for `CC(C)Oc1cc(C(F)(F)F)nc2ccc(COc3cc(-c4ccc(C(=O)N5CCC(N6CCCC6)CC5)cc4)cnc3N)cc12` reads “% inhibition = 19”; that for `Nc1ncc(-c2ccc(C(=O)N3CCC(N4CCCC4)CC3)cc2)cc1OCc1csc(-c2ccc(C(F)(F)F)cc2)n1`, “% inhibition = 21”.
The entry for `Nc1ncc(-c2ccc(C(=O)N3CCC(N4CCCC4)CC3)cc2)cc1OCc1ccc2ccccc2c1Br` is “% inhibition = 59”; for `CN(C)CCNC(=O)c1cccc(COc2cc(-c3ccc(C(=O)N4CCC(N5CCCC5)CC4)cc3)cnc2N)c1` it is “% inhibition = 20”.
For the compound `Nc1ncc(-c2ccc(C(=O)N3CCC(N4CCCC4)CC3)cc2)cc1OCc1cc(C(F)(F)F)ccc1Cl`, the “% inhibition” value is reported as “% inhibition = 26”.
For the compound `Nc1ncc(-c2ccc(C(=O)N3CCC(N4CCCC4)CC3)cc2)cc1OCc1ccc(C(F)(F)F)c(F)c1`, the “% inhibition” value is “% inhibition = 24”.
The entry for `Nc1ncc(-c2ccc(C(=O)N3CCC(N4CCCC4)CC3)cc2)cc1OCc1cc(F)ccc1C(F)(F)F` is “% inhibition = 26”; for `Nc1ncc(-c2ccc(C(=O)N3CCC(N4CCCC4)CC3)cc2)cc1OCc1ccccc1OC(F)(F)F` it is “% inhibition = 21”.
The entry for `CCOC(=O)C1CCN(C(=O)c2ccc(COc3cc(-c4ccc(C(=O)N5CCC(N6CCCC6)CC5)cc4)cnc3N)cc2)CC1` is “% inhibition = 16”; for `CCOC(=O)CCNC(=O)c1cccc(COc2cc(-c3ccc(C(=O)N4CCC(N5CCCC5)CC4)cc3)cnc2N)c1` it is “% inhibition = 14”; for `COC(=O)c1ccc(COc2cc(-c3ccc(C(=O)N4CCC(N5CCCC5)CC4)cc3)cnc2N)c(OC)c1` it is “% inhibition = 15”.
The result for `Nc1ncc(-c2ccc(C(=O)N3CCC(N4CCCC4)CC3)cc2)cc1OCc1ccc(S(=O)(=O)Nc2ccc(F)cc2)cc1` reads “% inhibition = 15”; that for `Nc1ncc(-c2ccc(C(=O)N3CCC(N4CCCC4)CC3)cc2)cc1OCc1ccc(-c2ccnc(Br)n2)cc1`, “% inhibition = 17”; that for `Nc1ncc(-c2ccc(C(=O)N3CCC(N4CCCC4)CC3)cc2)cc1OCc1cscn1`, “% inhibition = 12”.
Turning to `Nc1ncc(-c2ccc(C(=O)N3CCC(N4CCCC4)CC3)cc2)cc1OCc1cccc(CO)n1`, the “% inhibition” value was “% inhibition = 15”.
The entry for `Cc1noc(COc2cc(-c3ccc(C(=O)N4CCC(N5CCCC5)CC4)cc3)cnc2N)n1` is “% inhibition = 11”; for `Nc1ncc(-c2ccc(C(=O)N3CCC(N4CCCC4)CC3)cc2)cc1OCc1cccc(-c2ccnc(Br)n2)c1` it is “% inhibition = 13”; for `Nc1ncc(-c2ccc(C(=O)N3CCC(N4CCCC4)CC3)cc2)cc1OCc1ccc(C(F)(F)F)nc1` it is “% inhibition = 13”.
Consider `Nc1ncc(-c2ccc(C(=O)N3CCC(N4CCCC4)CC3)cc2)cc1OCc1ccc(S(N)(=O)=O)cc1`, for which the “% inhibition” value was “% inhibition = 17”.
`Nc1ncc(-c2ccc(C(=O)N3CCC(N4CCCC4)CC3)cc2)cc1OCc1ccc(-c2cnc(Br)nc2)cc1`: the “% inhibition” value is recorded as “% inhibition = 33”.
The entry for `Nc1ncc(-c2ccc(C(=O)N3CCC(N4CCCC4)CC3)cc2)cc1OCc1cn2ccccc2n1` is “% inhibition = 11”; for `COc1cc(COc2cc(-c3ccc(C(=O)N4CCC(N5CCCC5)CC4)cc3)cnc2N)cc(OC)c1` it is “% inhibition = 17”.
The result for `CCOC(=O)CCNS(=O)(=O)c1ccc(COc2cc(-c3ccc(C(=O)N4CCC(N5CCCC5)CC4)cc3)cnc2N)cc1` reads “% inhibition = 15”.
As to `Nc1ncc(-c2ccc(C(=O)N3CCC(N4CCCC4)CC3)cc2)cc1OCc1ccc(C(=O)c2ccccc2)cc1`, the “% inhibition” value is “% inhibition = 31”.
The result for `COc1cccc(COc2cc(-c3ccc(C(=O)N4CCC(N5CCCC5)CC4)cc3)cnc2N)c1OC` reads “% inhibition = 23”; that for `Cc1cc(-c2onc(C)c2COc2cc(-c3ccc(C(=O)N4CCC(N5CCCC5)CC4)cc3)cnc2N)no1`, “% inhibition = 22”; that for `Cc1nc2ccc(COc3cc(-c4ccc(C(=O)N5CCC(N6CCCC6)CC5)cc4)cnc3N)cc2c(=O)[nH]1`, “% inhibition = 12”.
The entry for `Nc1ncc(-c2ccc(C(=O)N3CCC(N4CCCC4)CC3)cc2)cc1OCc1ccc(S(=O)(=O)N2CCOCC2)cc1` is “% inhibition = 14”; for `COCOc1ccc(S(=O)(=O)c2ccc(COc3cc(-c4ccc(C(=O)N5CCC(N6CCCC6)CC5)cc4)cnc3N)cc2)cc1` it is “% inhibition = 18”; for `COc1ccc2sc(COc3cc(-c4ccc(C(=O)N5CCC(N6CCCC6)CC5)cc4)cnc3N)cc2c1` it is “% inhibition = 13”.
The entry for `Nc1ncc(-c2ccc(C(=O)N3CCC(N4CCCC4)CC3)cc2)cc1OCc1ccc(S(=O)(=O)c2ccc(F)cc2)cc1` is “% inhibition = 13”.
Turning to `Cc1nc2scc(COc3cc(-c4ccc(C(=O)N5CCC(N6CCCC6)CC5)cc4)cnc3N)c2c(=O)[nH]1`, the “% inhibition” value is “% inhibition = 10”.
The entry for `Nc1ncc(-c2ccc(C(=O)N3CCC(N4CCCC4)CC3)cc2)cc1OCc1cncc2ccccc12` is “% inhibition = 9”.
